In the supplement of paper PMC5412046:
Where a name gives a salt, the structure may show the parent alone.

Assays:
[1] = system: SB.mhdgc-1; test: AC50 for growth inhibition (viability) (log10 M); higher = less potent; conditions: SB.mhdgc-1 (hereditary c.1380delA CDH1 gastric cancer)
Outline: (§1)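 Gastric cancer cells from hereditary or sporadic patients, 500 per 1536 well, were exposed to compound for 48 h over 11 threefold dilutions from a final 46 μM. CellTiter-Glo luminescence, read on a ViewLux, measured viability, which was normalised to DMSO. The log half-maximal activity concentration came from four-parameter fits, and only high-quality curve classes were kept.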

[2] = system: SB.msgc-1; test: as above; conditions: SB.msgc-1 (sporadic gastric cancer)
Outline: as §1

CCCCc1oc2ccccc2c1C(=O)c1cc(I)c(OCCN(CC)CC)c(I)c1 [Amiodarone]
AC50 for growth inhibition (log10 M) [1]: -4.88 | AC50 for growth inhibition (log10 M) [2]: -5.03

CN(C)CCN1C(=O)c2cccc3cc(N)cc(c23)C1=O [Amonafide]
AC50 for growth inhibition (log10 M) [1]: -5.68 | AC50 for growth inhibition (log10 M) [2]: -5.08

ClC1=CC\2=C(OC3=C(C=CC=C3)\N=C2N4CCNCC4)C=C1 [Amoxapine]
AC50 for growth inhibition (log10 M) [1]: -4.63 | AC50 for growth inhibition (log10 M) [2]: -4.78

CC1(C)S[C@H]2[C@H](NC(=O)[C@@H](N)C3=CC=C(O)C=C3)C(=O)[N@]2[C@H]1C(O)=O [Amoxicillin sodium]
AC50 for growth inhibition (log10 M) [1]: -5.53 | AC50 for growth inhibition (log10 M) [2]: -5.08

C[C@@H]1[C@H](O)[C@@H](C)/C=C/C=C/C=C/C=C/C=C/C=C/C=C/[C@H](O[C@@H]2O[C@H](C)[C@@H](O)[C@H](N)[C@@H]2O)C[C@@H]2O[C@](O)(C[C@@H](O)C[C@@H](O)[C@H](O)CC[C@@H](O)C[C@@H](O)CC(=O)O[C@H]1C)C[C@H](O)[C@H]2C(=O)O [Amphotericin B]
AC50 for growth inhibition (log10 M) [1]: -6.38 | AC50 for growth inhibition (log10 M) [2]: -4.88

CC(C)CN(C[C@@H](O)[C@H](Cc1ccccc1)NC(=O)O[C@H]1CCOC1)[S+](=O)([O-])c1ccc(N)cc1 [Amprenavir]
AC50 for growth inhibition (log10 M) [1]: -6.03 | AC50 for growth inhibition (log10 M) [2]: -5.63

S=C(NCc1ccc2c(c1)OCO2)N1CCN(c2ncnc3c2oc2ccccc23)CC1 [Amuvatinib]
AC50 for growth inhibition (log10 M) [1]: -4.92 | AC50 for growth inhibition (log10 M) [2]: -5.57

N#C[C@H](O[C@@H]1O[C@H](CO[C@@H]2O[C@H](CO)[C@@H](O)[C@H](O)[C@H]2O)[C@@H](O)[C@H](O)[C@H]1O)c1ccccc1 [Amygdalin]
AC50 for growth inhibition (log10 M) [1]: -4.73 | AC50 for growth inhibition (log10 M) [2]: -4.68

COc1cc(F)c(C(C)C)cc1-c1ccc(C(F)(F)F)cc1CN1C(=O)O[C@H](c2cc(C(F)(F)F)cc(C(F)(F)F)c2)[C@@H]1C [Anacetrapib]
AC50 for growth inhibition (log10 M) [1]: -5.13 | AC50 for growth inhibition (log10 M) [2]: -5.48

CCCCCC[C@H]1C(=O)O[C@H](C)[C@H](NC(=O)c2cccc(NC=O)c2O)C(=O)O[C@@H](C)[C@@H]1OC(=O)CC(C)C [Antimycin A]
AC50 for growth inhibition (log10 M) [1]: -7.08 | AC50 for growth inhibition (log10 M) [2]: -7.13

OC1=CC=C(C=C1)\C2=C\C(=O)C3=C(O2)C=C(O)C=C3O [Apigenin]
AC50 for growth inhibition (log10 M) [1]: -5.08 | AC50 for growth inhibition (log10 M) [2]: -4.83

Cc1cccc(/C=N/Nc2cc(N3CCOCC3)nc(OCCc3ccccn3)n2)c1 [Apilimod]
AC50 for growth inhibition (log10 M) [1]: -4.88 | AC50 for growth inhibition (log10 M) [2]: -4.78

OC[C@H]1O[C@@H](Oc2ccc(O)cc2)[C@H](O)[C@@H](O)[C@@H]1O [Arbutin]
AC50 for growth inhibition (log10 M) [1]: -4.93 | AC50 for growth inhibition (log10 M) [2]: -4.78

C[C@H]1[C@@H](OC(=O)CCC(=O)O)O[C@@H]2O[C@@]3(C)CC[C@H]4[C@H](C)CC[C@@H]1[C@@]24OO3 [Artesunate (AS)]
AC50 for growth inhibition (log10 M) [1]: -5.03 | AC50 for growth inhibition (log10 M) [2]: -5.18

CCN1CCN(C(=O)Cc2ccc(Nc3ncc(F)c(Nc4ccc(C(=O)Nc5ccccc5Cl)cc4)n3)cc2)CC1 [Aurora A Inhibitor I]
AC50 for growth inhibition (log10 M) [1]: -4.78 | AC50 for growth inhibition (log10 M) [2]: -4.73

COc1ccc(C(=O)CC(=O)c2ccc(C(C)(C)C)cc2)cc1 [Avobenzone]
AC50 for growth inhibition (log10 M) [1]: -6.18 | AC50 for growth inhibition (log10 M) [2]: -5.58

CC[C@@H]1[C@@H](C)O[C@@](O)([C@@H](C)[C@H](O)[C@H](C)[C@H]2OC(=O)/C=C/C=C/[C@H](C)[C@@H]([C@@H](C)[C@@H](O)[C@H](C)[C@@]3(O)C[C@@H](O[C@H]4C[C@H](O)[C@H](O)[C@H](C)O4)[C@H](CC)[C@@H](C)O3)OC(=O)/C=C/C=C/[C@@H]2C)C[C@H]1O[C@H]1C[C@H](O)[C@H](O)[C@H](C)O1 [Azalomycin-B]
AC50 for growth inhibition (log10 M) [1]: -6.38 | AC50 for growth inhibition (log10 M) [2]: -6.33

CN1CCCC(CC1)N2\N=C(CC3=CC=C(Cl)C=C3)/C4=C(C=CC=C4)C2=O (configuration not stated) [Azelastine hydrochloride]
AC50 for growth inhibition (log10 M) [1]: -6.08 | AC50 for growth inhibition (log10 M) [2]: -6.03

CCOc1ccccc1N/N=C1/C(=O)N(c2nc(-c3ccccc3)cs2)N=C1C [BAM7]
AC50 for growth inhibition (log10 M) [1]: -5.48 | AC50 for growth inhibition (log10 M) [2]: -5.48

COc1ccc(-c2cc3nccn3c(Nc3ncccc3C(N)=O)n2)cc1OC [BAY61-3606]
AC50 for growth inhibition (log10 M) [1]: -5.53 | AC50 for growth inhibition (log10 M) [2]: -4.98

COC1=C(OCCCN2CCOCC2)C=CC\3=C1/N=C(/NC(=O)C4=CN=C(N)N=C4)N5CC/N=C35 [BAY-80-6946]
AC50 for growth inhibition (log10 M) [1]: -6.84 | AC50 for growth inhibition (log10 M) [2]: -7.44

Cn1c(=O)n(-c2ccc(C(C)(C)C#N)cc2)c2c3cc(-c4cnc5ccccc5c4)ccc3ncc21 [BEZ235]
AC50 for growth inhibition (log10 M) [1]: -6.88 | AC50 for growth inhibition (log10 M) [2]: -5.33

CCN1CCN(c2ccc(Nc3cc(N(C)C(=O)Nc4c(Cl)c(OC)cc(OC)c4Cl)ncn3)cc2)CC1 [BGJ-398]
AC50 for growth inhibition (log10 M) [1]: -4.58 | AC50 for growth inhibition (log10 M) [2]: -4.73

O=[N+]([O-])c1cnc(Sc2nnc(O)n2-c2ccc3c(c2)OCCO3)s1 [BI-78D3]
AC50 for growth inhibition (log10 M) [1]: -5.43 | AC50 for growth inhibition (log10 M) [2]: -4.83

O=C1Nc2cc(Br)ccc2/C1=C1/Nc2ccccc2/C1=N\O [BIO]
AC50 for growth inhibition (log10 M) [1]: -4.78 | AC50 for growth inhibition (log10 M) [2]: -4.98

Nc1cc(C(F)(F)F)c(-c2cc(N3CCOCC3)nc(N3CCOCC3)n2)cn1 [BKM-120]
AC50 for growth inhibition (log10 M) [1]: -6.78 | AC50 for growth inhibition (log10 M) [2]: -6.18

O=C(Nc1ncc(-c2cc(C(F)F)nn2-c2c(Cl)cccc2Cl)s1)C1CC1 [BMS-3]
AC50 for growth inhibition (log10 M) [1]: -6.13 | AC50 for growth inhibition (log10 M) [2]: -6.18

CN(CC(=O)N(Cc1ccc(C2CCCCC2)cc1)c1ccc(C(=O)O)c(O)c1)[S+](=O)([O-])c1c(F)c(F)c(F)c(F)c1F [BP-1-102]
AC50 for growth inhibition (log10 M) [1]: -4.58 | AC50 for growth inhibition (log10 M) [2]: -4.73

CC(C)c1cnn2c(NCc3ccccc3)cc(NCCCCCCN)nc12 [BS-181]
AC50 for growth inhibition (log10 M) [1]: -4.83 | AC50 for growth inhibition (log10 M) [2]: -4.73

CC(C)c1cnn2c(NCc3ccccc3)cc(N[C@@H](CO)[C@H](O)CO)nc12 [BS-194]
AC50 for growth inhibition (log10 M) [1]: -6.73 | AC50 for growth inhibition (log10 M) [2]: -6.58

C=CCO/N=C(/C[C@H]1O[C@@H]2O[C@]3(C)CC[C@H]4[C@H](C)CC[C@@H]([C@H]1C)[C@@]24OO3)[C@H]1O[C@@H]2O[C@]3(C)CC[C@H]4[C@H](C)CC[C@@H]([C@H]1C)[C@@]24OO3 [BTM-2C-dimer allyl oxime]
AC50 for growth inhibition (log10 M) [1]: -6.88 | AC50 for growth inhibition (log10 M) [2]: -6.58

C[C@H]1[C@@H](C(=O)C[C@H]2O[C@@H]3O[C@]4(C)CC[C@H]5[C@H](C)CC[C@@H]([C@H]2C)[C@@]35OO4)O[C@@H]2O[C@]3(C)CC[C@H]4[C@H](C)CC[C@@H]1[C@@]24OO3 [BTM-2C-dimer ketone]
AC50 for growth inhibition (log10 M) [1]: -6.38 | AC50 for growth inhibition (log10 M) [2]: -6.38

O=C(NCCCNc1nc(Nc2cccc(NC(=O)N3CCCC3)c2)ncc1I)c1cccs1 [BX-795]
AC50 for growth inhibition (log10 M) [1]: -4.83 | AC50 for growth inhibition (log10 M) [2]: -4.88

O=C(Nc1cccc(Nc2ncc(Br)c(NCCc3cnc[nH]3)n2)c1)N1CCCC1 [BX-912]
AC50 for growth inhibition (log10 M) [1]: -4.98 | AC50 for growth inhibition (log10 M) [2]: -4.78

CNC1CCCN(c2c(F)cc3c(=O)c(C(=O)O)cn(C4CC4)c3c2OC)C1 (configuration not stated) [Balofloxacin]
AC50 for growth inhibition (log10 M) [1]: -5.63 | AC50 for growth inhibition (log10 M) [2]: -4.83

C[N+](C)([O-])CCNc1ccc(NCC[N+](C)(C)[O-])c2c1C(=O)c1c(O)ccc(O)c1C2=O [Banoxantrone]
AC50 for growth inhibition (log10 M) [1]: -4.78 | AC50 for growth inhibition (log10 M) [2]: -4.88

O=C(OC)[C@]12CC[C@@]3(C)[C@]4(C)CC[C@H]5[C@@](C)(C)C(=O)C(=C[C@]5(C)C4=CC(=O)[C@@H]3[C@@H]2C[C@](C)(C)CC1)C#N [Bardoxolone methyl]
AC50 for growth inhibition (log10 M) [1]: -6.28 | AC50 for growth inhibition (log10 M) [2]: -6.33

CC[S+](=O)([O-])N1CC(CC#N)(n2cc(-c3ncnc4[nH]ccc34)cn2)C1 [Baricitinib]
AC50 for growth inhibition (log10 M) [1]: -4.88 | AC50 for growth inhibition (log10 M) [2]: -4.63

CNC(=O)[C@H](Cc1ccccc1)NC(=O)[C@H](CC(C)C)[C@H](CSc1cccs1)C(=O)NO [Batimastat]
AC50 for growth inhibition (log10 M) [1]: -4.68 | AC50 for growth inhibition (log10 M) [2]: -4.93

O=C(/C=C/c1cccc([S+](=O)([O-])Nc2ccccc2)c1)NO [Belinostat]
AC50 for growth inhibition (log10 M) [1]: -5.02 | AC50 for growth inhibition (log10 M) [2]: -5.47

N/C(=N\C(=O)c1nc(Cl)c(N)nc1N)NCc1ccccc1 [Benzamil]
AC50 for growth inhibition (log10 M) [1]: -5.73 | AC50 for growth inhibition (log10 M) [2]: -5.53

CCOC(=O)[C@H](CCc1ccccc1)N[C@H]1CCc2ccccc2N(CC(=O)O)C1=O [Benzapril]
AC50 for growth inhibition (log10 M) [1]: -5.03 | AC50 for growth inhibition (log10 M) [2]: -4.68

COc1ccc2cc3[n+](cc2c1OC)CCc1cc2c(cc1-3)OCO2 [Berberine]
AC50 for growth inhibition (log10 M) [1]: -4.98 | AC50 for growth inhibition (log10 M) [2]: -5.18

CC(O)(C[S+](=O)([O-])c1ccc(F)cc1)C(=O)Nc1ccc(C#N)c(C(F)(F)F)c1 (configuration not stated) [Bicalutamide]
AC50 for growth inhibition (log10 M) [1]: -6.43 | AC50 for growth inhibition (log10 M) [2]: -5.98

N=C1S/C(=C\c2ccc(-c3ccc4c(c3)C(=O)NC4=O)o2)C(=O)N1c1ccc(Br)cc1 [Bioymifi]
AC50 for growth inhibition (log10 M) [1]: -5.28 | AC50 for growth inhibition (log10 M) [2]: -5.43

CC[C@H](NC(=O)[C@H](C)NC)C(=O)N1C[C@@H](O)C[C@H]1Cc1c(-c2[nH]c3cc(F)ccc3c2C[C@@H]2C[C@H](O)CN2C(=O)[C@H](CC)NC(=O)[C@H](C)NC)[nH]c2cc(F)ccc12 [Birinapant]
AC50 for growth inhibition (log10 M) [1]: -6.23 | AC50 for growth inhibition (log10 M) [2]: -5.53
